Paper PMC12214830, “The human RIF1-Long isoform interacts with BRCA1 to promote recombinational fork repair under DNA replication stress” (Nature Communications, 2025)

What was measured:
Assay type in all cases: cell-based, human
[1] = test system: RPA; test: chromatin-bound RPA immunofluorescence, RPE-1 cells; conditions: HU 4 mM 24 h
Description: Cells were grown on glass coverslips and treated as desired. Cells were then permeabilized with 0.5% TritonX-100 in PBS for 7 min on ice, and fixed with 4% w/v formaldehyde solution (Sigma HT5012) for 10 min at room temperature (RT). After fixation, coverslips were blocked with 3% BSA in PBS (RT, 1 h), incubated with primary antibodies (RT, 2 h), washed with PBS three times and incubated with secondary antibodies (RT, 1 h). Primary antibodies used for immunofluorescence include anti-γH2A.X (20E3) (Cell Signalling Technology, 9718. 1:500); anti-RPA32/RPA2 (9H8) (Abcam, ab2175. 1:200); anti-RAD51 (H92) (Santa Cruz Biotechnology, sc-8349. 1:100); anti-BrdU (B44) (BD Biosciences, 347580. 1:100); Coverslips were then mounted on glass slides with mounting medium with DAPI. Images were captured by either standard (Zeiss Axio Imager) or confocal (Zeiss LSM-880) microscopy. Fluorescence signal intensities within each nucleus were analysed by CellProfiler software with custom-made pipelines. Co-localisation analyses were performed with custom-made CellProfiler pipelines. Briefly, nuclei were identified and used to create masks. […]

[2] = test system: HCT116 cells; test: colony formation (clonogenic survival) assay, HCT116 cells
Description: For HCT116-derived cells, cells were plated in 6-well plates at 250 cells/well, in triplicate for each drug concentration. Cells were incubated with drugs for 24 h, after which drug-containing medium was replaced with drug-free medium. Seven days later colony counting was performed using a Nikon Eclipse TS100 microscope. For the IR sensitivity test, cells were plated following the same procedure, then irradiated at desired doses and incubated for 7 days before colony counting. Clusters with more than 20 cells were counted as colonies. Mean and standard error of each triplicate was calculated.

[3] = test system: RIF1-L interaction with BRCA1; test: RIF1-BRCA1 / RIF1-BRCA1-BRCT co-immunoprecipitation, Flp-In T-REx 293 cells; conditions: HU 4 mM, 4 h or 24 h; Fig. 5H, I
Description: For mCherry IP and GFP IP, cells were washed once with ice-cold TBS, lysed with IP lysis buffer (1X TBS, 0.5 mM EDTA, 1% CHAPS, 1 mM PMSF, 3 mM MgCl2, 1X Halt Protease & Phosphatase inhibitor), and incubated with 1 µl/ml Benzonase (Sigma-Aldrich, E1014) for 45 min at 4 °C with rotation. RFP-Trap or GFP-Trap Magnetic Agarose beads (Chromotek) were washed three times in IP buffer 1 (1X TBS, 0.5 mM EDTA) and then incubated with cell lysates for 1 h at 4 °C with rotation. Beads were next washed three times with IP washing buffer (1X TBS, 0.5 mM EDTA, 0.1% CHAPS, 1 mM PMSF, 250 mM NaCl, 1X Halt Protease & Phosphatase inhibitor), after which bead-bound proteins (IP fractions) were eluted by heating at 95 °C for 7 min. IP fractions were analysed by western blotting.
For FLAG IP, cell lysates were prepared in the same way. Dynabeads magnetic beads (Invitrogen) were incubated with […] anti-FLAG antibody (Sigma-Aldrich, F1804) in PBS supplemented with 0.02% Tween-20) for 10 min at RT with rotation. The antibody-bound beads were incubated with cell lysates for 1 h at 4 °C with rotation. Beads were then washed three times with PBS, after which bead-bound proteins (IP fractions) were eluted by heating at 95 °C for 7 min. IP fractions were analysed by western blotting.

[4] = test system: RIF1-L phosphoS2265; test: Western blot, RIF1-L phosphoS2265, HeLa cells; conditions: HU 4 mM 24 h
Description: Cells were harvested in 10 mM Tris-HCl pH 7.5, 2 mM EDTA buffer and lysed with laemmli sample buffer (Bio-Rad, 1610737, supplemented with 5% β-mercaptoethanol). Samples were heated at 95 °C for 15 min and centrifuged at 13,000 × g for 15 min. Protein concentrations were measured by RC DC Protein Assay (Bio-Rad, 5000122). Equal amounts of total proteins for each sample were separated in Mini-PROTEAN TGX Stain-free Precast Gels (Bio-Rad) by SDS-PAGE. Gels were at this stage imaged with the ChemiDoc Touch Imaging System (Bio-Rad) using the ‘Protein gel – Stain free’ module to obtain stain-free gel images. Proteins on gel were transferred to PVDF membranes (Bio-Rad, 1704274) using the Trans-Blot Turbo Blotting System (Bio-Rad). Membranes were blocked in 3% BSA in TBS-T (1x TBS supplemented with 0.1% Tween-20) at RT for 1 h, followed by incubation with primary antibodies overnight at 4 °C. Membranes were washed with TBS-T and then incubated with secondary antibodies for 1 h at RT. The blots were developed with Clarity ECL reagents (Bio-Rad, 1705060) and imaged with the ChemiDoc Touch Imaging System (Bio-Rad). Primary antibodies used for western blotting include anti-RIF1 (Bethyl Laboratories, A300-568A. 1:5000); anti-RIF1-L-Phospho-S2265 (amsbio, custom. 1:5000); anti-BRCA1 (D-9) (Santa Cruz Biotechnology, sc-6954. 1:1000); anti-BARD1 (Bethyl Laboratories, A300-263A. 1:1000); anti-53BP1 (Novus Biologicals, NB100-94. 1:5000); anti-PP1α (G4) (Santa Cruz Biotechnology, sc-271762. 1:1000); anti-Tubulin (YOL1/34) (Santa Cruz Biotechnology, sc-53030. 1:4000); anti-FLAG (M2) (Sigma-Aldrich, F1804. 1:2000); anti-GFP (Chromotek, 3h9. 1:2000); anti-RFP (Chromotek, 5f8. 1:2000). Uncropped and unprocessed Western Blot images are provided in the Source Data file.

Q: What does the source list for NC(=O)NO [HU, hydroxyurea]?
A: chromatin-bound RPA [1]: both increased upon HU treatment; colony survival, RIF1-L cells ([2]; HCT116 expressing only RIF1-L, versus RIF1-WT): RIF1-L conferred resistance comparable to RIF1-WT; colony survival, RIF1-S cells ([2]; HCT116 expressing only RIF1-S, versus RIF1-KO): exhibited hypersensitivity to these drugs similar to RIF1-KO cells; RIF1-L interaction with BRCA1 [3]: increased RIF1-L interaction with BRCA1; RIF1-L phosphoS2265 western blot signal [4]: reduced RIF1-L phosphoS^2265 signal
